Holding throughout (assay): ≥ marks a high value that may be exact or a test limit, other limits are often not marked, values filed in µg/mL are converted to µM
Assay [1] has as its system Bacillus amyloliquefaciens ATCC 23842.
In assay [2] the test system is Bacillus cereus ATCC 14579.
Assay [3] deals with Bacillus licheniformis ATCC 14580.
In assay [4] the test system is Bacillus subtilis ATCC 6051.
For assay [5], the system named is Enterococcus faecalis 1F-1.
In assay [6] the test system is Enterococcus faecalis A4.
The test system of assay [7] is Enterococcus faecium 4W-9.
Assay [8] concerns Enterococcus faecium 5F-10.
Assay [9] deals with Escherichia coli ATCC 25922.
The test system of assay [10] is Proteus mirabilis ATCC 35659.
Assay [11] concerns Pseudomonas aeruginosa PAO1.
Assay [12] concerns Salmonella enterica ATCC H9812.
Assay [13] has as its system Staphylococcus aureus 215.
In assay [14] the test system is Staphylococcus aureus ATCC 29213.
The subject of assay [15] is Staphylococcus aureus MR.
In assay [16] the test system is Bacillus subtilis ATCC 6633.
The subject of assay [17] is Enterococcus faecalis ATCC 19433.
For assay [18], the system named is Enterococcus faecium ATCC 19434.
Assay [19] relates to Klebsiella pneumoniae ATCC 13883.
In assay [20] the test system is Proteus mirabilis CCUG 26767.
Assay [21] relates to Pseudomonas aeruginosa ATCC 27853.
Assay [22] relates to Salmonella enterica subsp. enterica serovar Typhimurium LT2.
In assay [23] the test system is Candida albicans CGMCC 2.2086.
Assay [24] relates to Candida parapsilosis CGMCC 2.3989.
Assay [25] relates to Candida tropicalis CGMCC 2.1975.
Assay [26] has as its system Escherichia coli 078.
Assay [27] relates to Escherichia coli 987P.
Assay [28] deals with Escherichia coli K88.
Assay [29] has as its system Escherichia coli K99.
The test system of assay [30] is Escherichia coli UB1005.
For assay [31], the system named is Lacticaseibacillus rhamnosus 7469.
Assay [32] relates to Lactiplantibacillus plantarum 8014.
For assay [33], the system named is Salmonella enterica subsp. enterica serovar Typhimurium ATCC 14028.
For assay [34], the system named is Salmonella enterica subsp. enterica serovar Typhimurium C77-31.
Assay [35] relates to Staphylococcus aureus ATCC 25923.
Assay [36] relates to Staphylococcus epidermidis ATCC 12228.
Assay [37] has as its system Bacillus subtilis 168.
Assay [38] relates to Escherichia coli BL21.
The test system of assay [39] is Escherichia coli ESBL.
Assay [40] relates to Staphylococcus aureus.
In assay [41] the test system is Acinetobacter baumannii KCTC 2508.
Assay [42] has as its system Bacillus subtilis KCTC 2217.
Assay [43] relates to Candida albicans ATCC 5314.
The subject of assay [44] is Staphylococcus aureus ATCC 6538.
Assay [45] relates to Staphylococcus aureus ATCC 8325-4.
The test system of assay [46] is Streptococcus mutans ATCC UA159.
The test system of assay [47] is Streptococcus sanguinis ATCC 10556.

Converted amounts (≈) assume the structure as drawn. “And” between values parts separate entries of the source, which are not always exact repeats. Equal entries are not always repeated.

`CC(=O)N[C@@H](CCC(=O)O)C(=O)N[C@@H](CC(C)C)C(=O)N[C@@H](CC(C)C)C(=O)N[C@@H](CO)C(=O)N[C@@H](CCCN=C(N)N)C(=O)N[C@H](C(=O)N[C@@H](CC(N)=O)C(=O)O)C(C)C` [ELLSRVN]: the minimum inhibitory concentration (MIC) in [1], in assay [2], in assay [3], in assay [4], in assay [5] and in assay [6] was not below 154 µM throughout. Further, the MIC (as a rule, the smallest concentration in the dilution series that meets the test's criterion for growth inhibition) in assay [7] is not below 154 µM; in assay [8], not below 154 µM; in [9], 77.1 µM (≈ 67.2 µg/mL); in assay [10], not below 154 µM; in assay [11], 154 µM (≈ 134 µg/mL); in assay [12] it was not below 154 µM. The minimum inhibitory concentration (MIC) in [13] is not below 38.6 µM; in [14], 38.6 µM (≈ 33.6 µg/mL); in [15], not below 38.6 µM.

As for `CC[C@H](C)[C@H](NC(=O)[C@H](CCCCN)NC(=O)[C@@H]1CCCN1C(=O)[C@H](CC(C)C)NC(=O)[C@@H](N)Cc1ccccc1)C(=O)N[C@@H](CC(C)C)C(=O)N[C@@H](CCCN=C(N)N)C(=O)N[C@@H](CCCCN)C(=O)N[C@H](C(=O)N[C@H](C(=O)N[C@@H](CCCN=C(N)N)C(=O)N[C@@H](C)C(=O)N[C@@H](CC(C)C)C(N)=O)C(C)C)[C@@H](C)CC` [FLPKILRKIVRAL], the MIC was not below 47.9 µM in [16]; 23.9 µM (≈ 37.5 µg/mL) in assay [17]; 23.9 µM (≈ 37.5 µg/mL) in assay [18]; 23.9 µM (≈ 37.5 µg/mL) in assay [9]; not below 47.9 µM in [19]; not below 383 µM in [20]. Moreover, the minimal inhibitory concentration (MIC) is more than 383 µM in assay [21], not below 47.9 µM in assay [22] and 191 µM (≈ 300 µg/mL) in assay [14].

As for `CC[C@H](C)[C@H](N)C(=O)N[C@@H](Cc1cnc[nH]1)C(=O)N[C@@H](Cc1cnc[nH]1)C(=O)N[C@H](C(=O)N[C@@H](Cc1cnc[nH]1)C(=O)N[C@@H](Cc1cnc[nH]1)C(=O)N[C@H](C(N)=O)[C@@H](C)CC)[C@@H](C)CC` [IHHIHHI], the MIC in assay [23] was not below 64 µM; in assay [24], not below 64 µM; in [25], not below 64 µM; in assay [26], not below 64 µM; in assay [27], not below 64 µM; in assay [9], more than 64 µM. Also, the minimum inhibitory concentration (MIC) in [28] is not below 64 µM; in assay [29] it was not below 64 µM; in assay [30], not below 64 µM; in assay [31], not below 64 µM; in assay [32], not below 64 µM; in assay [21] it was more than 64 µM. Further, the MIC in [11] is more than 64 µM; in assay [33], more than 64 µM; in assay [34], not below 64 µM; in [35], more than 64 µM; in assay [14], more than 64 µM; in assay [36], more than 64 µM.

In the case of `CC[C@H](C)[C@H](N)C(=O)N[C@H](C(=O)N[C@@H](CCCCN)C(=O)N[C@@H](CCCCN)C(=O)N[C@H](C(=O)N[C@H](C(=O)N[C@@H](CCCCN)C(=O)N[C@@H](CCCCN)C(=O)N[C@H](C(=O)N[C@H](C(=O)N[C@@H](CCCCN)C(=O)N[C@@H](CCCCN)C(=O)N[C@H](C(N)=O)[C@@H](C)CC)[C@@H](C)CC)[C@@H](C)CC)[C@@H](C)CC)[C@@H](C)CC)[C@@H](C)CC` [IIKKIIKKIIKKI], the MIC was found to be 5 µM (≈ 7.89 µg/mL) in [37], 2.5 µM (≈ 3.95 µg/mL) in [38], 12 µM (≈ 18.9 µg/mL) in assay [39] and 7.5 µM (≈ 11.8 µg/mL) in assay [40].

On to `CC(C)C[C@H](NC(=O)[C@H](CC(C)C)NC(=O)[C@H](CCCCN)NC(=O)[C@H](CCCCN)NC(=O)[C@H](CC(C)C)NC(=O)[C@H](CC(C)C)NC(=O)[C@@H]1CCCN1C(=O)[C@H](CCCCN)NC(=O)[C@H](CCCCN)NC(=O)[C@H](CC(C)C)NC(=O)[C@H](CC(C)C)NC(=O)[C@H](CCCCN)NC(=O)[C@H](CCCCN)NC(=O)[C@H](Cc1c[nH]c2ccccc12)NC(=O)[C@@H](N)CCCCN)C(=O)N[C@@H](CCCCN)C(N)=O` [KWKKLLKKPLLKKLLK], for which the minimal inhibitory concentration (MIC) in assay [41] was 3.13 µM (≈ 6.27 µg/mL); in assay [42], 1.56 µM (≈ 3.13 µg/mL); in assay [35], 1.56 µM and > 0.78 µM.

On to `CC[C@H](C)[C@H](NC(=O)[C@H](CCCCN)NC(=O)[C@H](CCCN=C(N)N)NC(=O)[C@H](CCC(=O)O)NC(=O)[C@H](Cc1ccc(O)cc1)NC(=O)[C@@H](N)CO)C(=O)N[C@@H](CC(N)=O)C(=O)N[C@@H](CCCN=C(N)N)C(=O)N[C@@H](Cc1cnc[nH]1)C(=O)N[C@@H](Cc1ccccc1)C(=O)N[C@@H](CCCCN)C(=O)N[C@H](C(=O)N[C@@H](CC(C)C)C(=O)N[C@@H](CCCCN)C(=O)N[C@@H](CCCCN)C(=O)N[C@@H](CC(N)=O)C(=O)N[C@@H](CC(C)C)C(=O)N[C@@H](CCCCN)C(=O)N[C@@H](CCCCN)C(=O)N[C@@H](CCCCN)C(N)=O)[C@@H](C)O` [SYERKINRHFKTLKKNLKKK], for which the MIC came out at 25 µM (≈ 64 µg/mL) in [43]; 12.5 µM (≈ 32 µg/mL) in [35]; 12.5 µM (≈ 32 µg/mL) in [14]; 12.5 µM (≈ 32 µg/mL) in [44]; 6.25 µM (≈ 16 µg/mL) in assay [45]; 12.5 µM (≈ 32 µg/mL) in [15]. Further, the minimal inhibitory concentration (MIC) in assay [40] came to 6.25 µM (≈ 16 µg/mL); in [46] it was 25 µM (≈ 64 µg/mL); in [47], 25 µM (≈ 64 µg/mL).

These data come from DBAASP.
